Active and inactive are the calls of the source. No cut-off for these calls is given here.
Assays:
Vero = experiment: Cytotoxicity against african green monkey Vero cells assessed as cell viability after 72 hrs by MTT assay; type: cell-based; details: Chlorocebus sabaeus
MCF-10A = experiment: Cytotoxicity against human MCF10A cells assessed as cell viability after 72 hrs by MTT assay; type: cell-based
[1] = Cytotoxicity against human fibroblasts assessed as cell viability after 72 hrs by MTT assay; type: cell-based; details: Fibroblast
[2] = Cytotoxicity against mouse Cloudman S91 cells assessed as cell viability after 72 hrs by MTT assay; type: cell-based; details: S91, 72 h
RPMI-8226 = experiment: Photoprotection against UV light-induced DNA damage in human RPMI8226 cells at 10 mM treated in cream formulation measured for 3 hrs by agarose gel electrophoresis; type: functional, cell-based
[3] = Photoprotection against UV light-induced Escherichia coli pEGFP-C1 DNA damage at 10 mM treated in cream formulation measured for 2 hrs by agarose gel electrophoresis; type: functional
[4] = Photoprotection against UV light-induced Escherichia coli pEGFP-C1 DNA damage at 10 mM treated in 1N NaOH solution measured for 2 hrs by agarose gel electrophoresis; type: functional

Cc1cn(CCCn2cc(C)c(=O)[nH]c2=O)c(=O)[nH]c1=O
EC50 (Vero): > 100 µM
EC50 (MCF-10A): > 100 µM
EC50 [1]: > 100 µM
EC50 [2]: > 100 µM
Activity (RPMI-8226): Active
Activity [3]: Active
Activity [4]: Active
